Laboratory results from ChEMBL document CHEMBL4138175, “Newly designed organotin(IV) carboxylates with peptide linkage: Synthesis, structural elucidation, physicochemical characterizations and pharmacological investigations” (Eur J Med Chem, 2018).
Active and inactive are the calls of the source. No cut-off for these calls is given here.

Legend:
NCI-H157 [1] = test: Cytotoxicity against human NCI-H157 cells after 48 hrs by sulforhodamine B assay; format: functional, cell-based
Serratia marcescens [2] = test: Antibacterial activity against Serratia marcescens assessed as zone of inhibition by measuring activity index after 24 to 48 hrs by well diffusion method relative to ampicillin; format: functional
Klebsiella pneumoniae [3] = test: Antibacterial activity against Klebsiella pneumoniae assessed as zone of inhibition after 24 to 48 hrs by well diffusion method; format: functional
DNA [4] = test: Binding affinity to single-stranded DNA (unknown origin) after 10 mins by UV-visible spectrometric method; format: nucleic-acid assay
Pseudomonas aeruginosa [5] = test: Antibacterial activity against Pseudomonas aeruginosa assessed as zone of inhibition by measuring activity index after 24 to 48 hrs by well diffusion method relative to tetracycline; format: functional, organism-based
Leishmania major [6] = test: Antileishmanial activity against Leishmania major promastigotes at 100 uM after 72 hrs by MTT assay relative to control; format: functional
Serratia marcescens [7] = test: Antibacterial activity against Serratia marcescens assessed as zone of inhibition by measuring activity index after 24 to 48 hrs by well diffusion method relative to amoxicillin; format: functional
Staphylococcus aureus [8] = test: Antibacterial activity against Staphylococcus aureus assessed as zone of inhibition after 24 to 48 hrs by well diffusion method; format: functional
Staphylococcus aureus [9] = test: Antibacterial activity against Staphylococcus aureus assessed as zone of inhibition by measuring activity index after 24 to 48 hrs by well diffusion method relative to tetracycline; format: functional, organism-based
[10] = tested on: Staphylococcus epidermidis; test: Antibacterial activity against Staphylococcus epidermidis assessed as zone of inhibition after 24 to 48 hrs by well diffusion method; format: functional
Serratia marcescens [11] = test: Antibacterial activity against Serratia marcescens assessed as zone of inhibition by measuring activity index after 24 to 48 hrs by well diffusion method relative to penicillin G; format: functional
Serratia marcescens [12] = test: Antibacterial activity against Serratia marcescens assessed as zone of inhibition after 24 to 48 hrs by well diffusion method; format: functional
Pseudomonas aeruginosa [13] = test: Antibacterial activity against Pseudomonas aeruginosa assessed as zone of inhibition after 24 to 48 hrs by well diffusion method; format: functional
[14] = tested on: Staphylococcus epidermidis; test: Antibacterial activity against Staphylococcus epidermidis assessed as zone of inhibition by measuring activity index after 24 to 48 hrs by well diffusion method relative to tetracycline; format: functional, organism-based
Pseudomonas aeruginosa [15] = test: Antibacterial activity against Pseudomonas aeruginosa assessed as zone of inhibition by measuring activity index after 24 to 48 hrs by well diffusion method relative to penicillin G; format: functional, organism-based
Klebsiella pneumoniae [16] = test: Antibacterial activity against Klebsiella pneumoniae assessed as zone of inhibition by measuring activity index after 24 to 48 hrs by well diffusion method relative to penicillin G; format: functional, organism-based
Staphylococcus aureus [17] = test: Antibacterial activity against Staphylococcus aureus assessed as zone of inhibition by measuring activity index after 24 to 48 hrs by well diffusion method relative to penicillin G; format: functional, organism-based
Leishmania major [18] = test: Antileishmanial activity against Leishmania major promastigotes at 0.1 uM after 72 hrs by MTT assay relative to control; format: functional
NCI-H157 [19] = test: Cytotoxicity against human NCI-H157 cells at 100 uM after 48 hrs by sulforhodamine B assay; format: functional
NCI-H157 [20] = test: Cytotoxicity against human NCI-H157 cells at 10 uM after 48 hrs by sulforhodamine B assay; format: functional
Leishmania major [21] = test: Antileishmanial activity against Leishmania major promastigotes at 10 uM after 72 hrs by MTT assay relative to control; format: functional
Streptococcus pyogenes [22] = test: Antibacterial activity against Streptococcus pyogenes assessed as zone of inhibition after 24 to 48 hrs by well diffusion method; format: functional
Escherichia coli [23] = test: Antibacterial activity against Escherichia coli assessed as zone of inhibition after 24 to 48 hrs by well diffusion method; format: functional
Staphylococcus aureus [24] = test: Antibacterial activity against Staphylococcus aureus assessed as zone of inhibition by measuring activity index after 24 to 48 hrs by well diffusion method relative to amoxicillin; format: functional, organism-based
Pseudomonas aeruginosa [25] = test: Antibacterial activity against Pseudomonas aeruginosa assessed as zone of inhibition by measuring activity index after 24 to 48 hrs by well diffusion method relative to amoxicillin; format: functional, organism-based
Escherichia coli [26] = test: Antibacterial activity against Escherichia coli assessed as zone of inhibition by measuring activity index after 24 to 48 hrs by well diffusion method relative to tetracycline; format: functional
Leishmania major [27] = test: Antileishmanial activity against Leishmania major promastigotes at 1 uM after 72 hrs by MTT assay relative to control; format: functional
Staphylococcus aureus [28] = test: Antibacterial activity against Staphylococcus aureus assessed as zone of inhibition by measuring activity index after 24 to 48 hrs by well diffusion method relative to ampicillin; format: functional, organism-based
DNA [29] = test: Binding affinity to single-stranded DNA (unknown origin) assessed as red shift up to 72 uM after 10 mins by UV-visible spectrometric method; format: nucleic-acid assay
[30] = tested on: Staphylococcus epidermidis; test: Antibacterial activity against Staphylococcus epidermidis assessed as zone of inhibition by measuring activity index after 24 to 48 hrs by well diffusion method relative to amoxicillin; format: functional, organism-based
NCI-H157 [31] = test: Cytotoxicity against human NCI-H157 cells at 0.1 uM after 48 hrs by sulforhodamine B assay; format: functional
NCI-H157 [32] = test: Cytotoxicity against human NCI-H157 cells at 1 uM after 48 hrs by sulforhodamine B assay; format: functional
Streptococcus pyogenes [33] = test: Antibacterial activity against Streptococcus pyogenes assessed as zone of inhibition by measuring activity index after 24 to 48 hrs by well diffusion method relative to tetracycline; format: functional, organism-based
Streptococcus pyogenes [34] = test: Antibacterial activity against Streptococcus pyogenes assessed as zone of inhibition by measuring activity index after 24 to 48 hrs by well diffusion method relative to penicillin G; format: functional, organism-based
Klebsiella pneumoniae [35] = test: Antibacterial activity against Klebsiella pneumoniae assessed as zone of inhibition by measuring activity index after 24 to 48 hrs by well diffusion method relative to tetracycline; format: functional, organism-based
Klebsiella pneumoniae [36] = test: Antibacterial activity against Klebsiella pneumoniae assessed as zone of inhibition by measuring activity index after 24 to 48 hrs by well diffusion method relative to ampicillin; format: functional, organism-based
Streptococcus pyogenes [37] = test: Antibacterial activity against Streptococcus pyogenes assessed as zone of inhibition by measuring activity index after 24 to 48 hrs by well diffusion method relative to ampicillin; format: functional, organism-based
Klebsiella pneumoniae [38] = test: Antibacterial activity against Klebsiella pneumoniae assessed as zone of inhibition by measuring activity index after 24 to 48 hrs by well diffusion method relative to amoxicillin; format: functional, organism-based
Streptococcus pyogenes [39] = test: Antibacterial activity against Streptococcus pyogenes assessed as zone of inhibition by measuring activity index after 24 to 48 hrs by well diffusion method relative to amoxicillin; format: functional, organism-based

Substance	Activity (NCI-H157 [1])	Activity index (Serratia marcescens [2])	inhibition zone (IZ) (Klebsiella pneumoniae [3])	K (DNA [4])	Activity index (Pseudomonas aeruginosa [5])	Activity (Leishmania major [6])	Activity index (Serratia marcescens [7])	inhibition zone (IZ) (Staphylococcus aureus [8])	Activity_index (Staphylococcus aureus [9])	inhibition zone (IZ) [10]	Activity index (Serratia marcescens [11])	inhibition zone (IZ) (Serratia marcescens [12])	inhibition zone (IZ) (Pseudomonas aeruginosa [13])	Activity index [14]	Activity index (Pseudomonas aeruginosa [15])	Activity_index (Staphylococcus aureus [17])	Activity (Leishmania major [18])	Activity (NCI-H157 [19])	Activity (NCI-H157 [20])	Activity (Leishmania major [21])	further results
(2,9-Dimethyl-1,10-Phenanthroline) trimethylstannyl 2-(4-methoxy-2-nitrophenylcarbamo-yl)benzoate	Dose-dependent effect	1.96	inactive	2 ×10⁴ /M	3.84	62.1%	2.61	inactive	inactive	16 mm	1.96	15.7 mm	23 mm	1.6	3.84	inactive	52.1%	52.8%	50.3%	59.5%	Activity_index (Klebsiella pneumoniae [16]): inactive; inhibition zone (IZ) (Streptococcus pyogenes [22]): 5 mm; inhibition zone (IZ) (Escherichia coli [23]): 1.53 mm; Activity_index (Staphylococcus aureus [24]): inactive; Activity index (Pseudomonas aeruginosa [25]): 3.84; Activity index (Escherichia coli [26]): 0.77; Activity (Leishmania major [27]): 56.7%; Activity_index (Staphylococcus aureus [28]): inactive; Activity (DNA [29]): < 3 nm; Activity index [30]: 8; Activity (NCI-H157 [31]): 45.5%; Activity (NCI-H157 [32]): 48.6%
Tributylstannyl 2-(4-methoxy-2-nitrophenylcarbamoyl)benzoate	Dose-dependent effect	1.58	15 mm	7.6 ×10³ /M	2.61	66.9%	2.11	inactive	inactive	16 mm	1.58	12.7 mm	15.7 mm	1.6	2.61	inactive	52.6%	38.2%	37.7%	63.3%	Activity_index (Streptococcus pyogenes [33]): inactive; Activity_index (Streptococcus pyogenes [34]): inactive; Activity index (Klebsiella pneumoniae [35]): 1.07; inhibition zone (IZ) (Streptococcus pyogenes [22]): inactive; Activity index (Klebsiella pneumoniae [36]): 2.5; inhibition zone (IZ) (Escherichia coli [23]): 1.56 mm; Activity_index (Staphylococcus aureus [24]): inactive; Activity index (Pseudomonas aeruginosa [25]): 2.61; Activity index (Escherichia coli [26]): 0.78; Activity (Leishmania major [27]): 57.4%; Activity_index (Staphylococcus aureus [28]): inactive; Activity (DNA [29]): < 3 nm; Activity index [30]: 8; Activity_index (Streptococcus pyogenes [37]): inactive; Activity (NCI-H157 [31]): 32.1%; Activity index (Klebsiella pneumoniae [38]): 2.5; Activity_index (Streptococcus pyogenes [39]): inactive; Activity (NCI-H157 [32]): 35.6%
